In US20250042880A1 (UNIVERSITY OF KENTUCKY RESEARCH FOUNDATION, priority 2021, published 2025):

Assays:
[1] = tested on: LS174T xenografts; assay: LS174T xenografts in SCID mice; format: in vivo, mouse
Protocol: In vivo evaluation of anti-cancer activity in LS174T xenografts—The mouse studies were conducted with the approval of the University of Kentucky Institutional Animal Care and Use Committee (2020-3531). All methods were carried out in compliance with the relevant guidelines and regulations according to protocols. The LS174T cells in exponential growth phase were trypsinized and resuspended in 50% Matrigel (Corning, Glendale, Arizona). Cells (1.2×10^6) were subcutaneously injected on the lower flanks of severe combined immunodeficient mice. The tumor volumes were calculated based on the formula Length×width^2/2. When tumors reached an average volume of 100 mm^3, the mice were divided into control and treatment groups (3 male and 3 female mice/group, two tumors on each mouse). After tumors were established, BAY-876 was given to the mice by gavage feeding to the BAY-876 group at the dose of 3 mg/kg/day. DBI-1 was daily intraperitoneally (i.p.) administered to the DBI-1 group at dose of 40 mg/kg mouse body weight. Mice in the combination treatment group were administered both oral BAY-876 at the dose of 3 mg/kg/day and i.p. DBI-1 at dose of 40 mg/kg mouse body weight. Tumors and mouse weights were measured every three days and the experiment was stopped at day 12. Tumors were isolated and fixed in 10% neutral buffered formalin. Tumor sections were analyzed with H&E and Ki-67 staining at Markey Cancer Center's Biospecimen Procurement and Translational Pathology Shared Resource Facility (BPTP SRF).

[2] = administered in vivo; cited from earlier work
[3] = tested on: SKOV-3 ovarian cancer xenograft; settings: 4.5 mg/kg/day for 4 weeks; cited from earlier work
[4] = tested on: SKOV-3 cells; settings: growth inhibition; cited from earlier work
[5] = tested on: BT549, MDA-MB-436 and HCC70; settings: 3 μM; cited from earlier work
[6] = tested on: LS174T cells; assay: Seahorse oxygen consumption rate assay; format: cell-based; settings: rotenone/antimycin A replaced with compound
Protocol: Seahorse oxygen consumption rate assay-Seahorse assays were conducted in accordance with a published protocol (50). Mitochondrial bioenergetic measurements were performed using the Seahorse XFe96 Extracellular Flow Analyzer (Agilent Technologies, Santa Clara, CA, USA) to measure the oxygen consumption rate (OCR) in different respiratory states. 2.5×10^4 LS174T cells in 80 μL medium were seeded in XF96 Cell Culture microplate and cultured overnight. Then cell culture media were replaced with Seahorse XF modified media before cells were treated. […] To test whether compounds were ETC complex I or III inhibitors, rotenone and antimycin A were replaced with DMSO, or compounds in DMSO solution.
The Seahorse assays were performed in compliance with a pre-announced procedure (41). Oxygen consumption was measured using the Seahorse XFe96 Extracellular Flow Analyzer (Agilent Technologies, Santa Clara, CA, USA). 2.5×10^4 LS174T cells were seeded in XF96 Cell Culture microplate in 80 μL culture medium and incubated overnight. On the following day, the cell culture media were exchanged with Seahorse XF modified media. 1.0 μmol/L oligomycin, 1.0 μmol/L FCCP, and a mixture of 1.0 μmol/L rotenone and 1.0 μmol/L antimycin A were sequentially added during the measurements. […]

[7] = tested on: mitochondrial complex I; assay: Mitochondrial ETC complex activity using PMP-permeabilized cells; format: cell-based
Protocol: Mitochondrial ETC complex activity measurements using PMP-Measurements of mitochondrial ETC complex activity were performed using the Agilent Seahorse Assay with XF PMP (Agilent, Santa Clara, CA) according to the manufacturer's instructions. Mitochondrial assay solution (MAS) was prepared with 220 mM mannitol, 70 mM sucrose, 10 mM KH2PO4, 5 mM MgCl2, 2 mM HEPES, 1 mM EGTA, and 0.2% (w/v) fatty acid free BSA. Cells were gen Ly washed with MAS and cell media was replaced with MAS supplemented with 4 mM adenosine diphosphate (ADP), 10 mM pyruvate, and 1 nM PMP. After calibration, the test was prompμLy carried out by measuring baseline with two cycles of 0.5 min mixing, 0.5 min waiting, and 2 min measuring. Following the baseline measurements, DMSO, test compounds or 2 μM rotenone, 10 mM succinate, 2 μM antimycin A, and a combination of 10 mM ascorbate and 100 μM TMPD were sequentially injected. The experiment data were then normalized to cell counts using Biotek Cytation 1 (BioTek Instruments, Winooski, VT, USA).
Mitochondrial ETC complex activity was measured using the Agilent Seahorse Assay with XF permeabilizer (PMP; Agilent) in compliance with the manufacturer's protocol. […] Following calibration, the baseline OCR was measured with cycles of 0.5-minute mixing, 0.5-minute waiting, and 2-minute measuring to perform the test. […]

SMILES	tumor growth ([1]; BAY-876 3 mg/kg/day oral, DBI-1 40 mg/kg/day i.p., two weeks)	toxicity based on mice body weight growth rate ([1]; BAY-876 3 mg/kg/day, DBI-1 40 mg/kg/day)	oral availability [2]	average weight loss compared to the control group [3]	reduction of average tumor volumes [3]	reduction of tumor weights [3]	IC50 [4]	growth of TNBC cell lines BT549, MDA-MB-436 and HCC70 [5]	oxygen consumption rate (OCR) [6]	ETC complex inhibited (conclusion of Seahorse assays) ([7]; ETC complex-specific inhibitors and PMP-permeabilized cells)	pyruvate/NADH-linked respiration ([7]; PMP-permeabilized CRC cells)
Cc1c(NC(=O)c2cc(C(N)=O)nc3cc(F)ccc23)c(C(F)(F)F)nn1Cc1ccc(C#N)cc1 [BAY-876, N^4-[1-(4-cyanobenzyl)-5-methyl-3-(trifluoromethyl)-1H-pyrazol-4-yl]-7-fluoroquinoline-2,4-dicarboxamide]	inhibited tumor growth	No significant toxicity	orally available	18%	68%	66%	188 nM	did not inhibit the growth			
O=c1c(-c2ccc(Cl)c(Cl)c2)coc2cc(OCCN3CCN(CCO)CC3)ccc12 [DBI-6, 3-(3,4-dichlorophenyl)-7-(2-(4-(2-hydroxyethyl)piperazin-1-yl)ethoxy)-4H-chromen-4-one]									suppressed OCR in a similar manner to rotenone/antimycin A	complex I inhibitor	reduced pyruvate/NADH-linked respiration
